Reference: patent US9624244B2, “Benzo [B] isoxazoloazepine bromodomain inhibitors and uses thereof” (Constellation Pharmaceuticals, Inc., priority 2012, dated 2017)

Columns and labels:
[1] = target: T1, BRD4(BD1) (Homo sapiens, UniProt O60885); assay: BRD4 AlphaLisa binding assay; conditions: BRD4(BD1) 30 nM, biotinylated H4-tetraacetyl peptide 200 nM, read-out: AS IC50
T1 construct: His; made in house
Description: IC50 Measurements for Inhibitors Using BRD4 AlphaLisa Binding Assay
Specifically, in a 384 well ProxiPlate BRD4(BD1) (30 nM final) was combined with peptide (200 nM final) in 40 mM HEPES (pH 7.0), 40 mM NaCl, 1 mM DTT, 0.01% (w/v) BSA, and 0.008% (w/v) Brij-35 either in the presence of DMSO (final 1.2% DMSO) or compound dilution series in DMSO. After 20 minute incubation at room temperature Alpha streptavidin donor beads and AlphaLisa anti-Flag acceptor beads were added to a final concentration of 10 ug/mL each. After three hours equilibration plates were read on an Envision instrument and IC50s calculated using a four parameter non-linear curve fit.

[2] = system: IL-6 secretion, THP-1 cells; assay: Cell-based IL-6 quantification assay (ELISA, Mesoscale) in LPS-stimulated THP-1 cells; conditions: Homo sapiens, LPS 4 μg/mL, 16 h, ELISA value/CellTiter-Glo ratio
Description: Cell-Based IL-6 Quantification Assay (ELISA, Mesoscale Assay):
100,000 THP-1 cells were seeded in RPMI1640-10% FBS in 96-well plates. LPS (E. Coli Invitrogen) in RPMI-10% FBS at a final concentration of 4 μg/mL was added to the wells and the cells are then incubated in the presence of various concentrations of compounds for 16 h. Plates are spun ([…], 5 min), an aliquot of 25 uL supernatant is transferred in to an ELISA plate (Mesoscale technology, MSD) and the detection of IL-6 is performed using manufacturer's instructions. The amount of cells in each well is assessed using CellTiter-Glo® (Promega). The ratio of ELISA value/CellTiter-Glo value is used to calculate the percent of inhibition of IL-6 secretion.

[3] = system: MYC mRNA, MV4:11 (AML) or Raji (Burkitt's lymphoma) cells; assay: cMyc RNA quantification assay (QuantiGene); assay type: cell-based; conditions: MV4:11 or Raji cells, 4 h, MYC mRNA normalized to DMSO
Description: cMyc RNA Quantification Assay (QuantiGene® Assay):
MV4:11 (AML) or Raji (Burkitt's lymphoma) cells were seeded in a 96-well plate and incubated in the presence of various concentrations of compounds for 4 h. Relative mRNA levels were quantitated by using QuantiGene 2.0 assay (Affymetrix) according to the manufacturer's recommendation. Signals were detected by using an Envision plate reader (Perkin-Elmer). Biological duplicates were averaged and normalized to vehicle (DMSO) control to calculate percent MYC mRNA levels.

SMILES | IC50 [1] [nM] | IC50 [2] [nM] | EC50 [3] [nM]
Cc1noc2c1-c1ccccc1NCC2 [Compound 100, 1-methyl-5,6-dihydro-4H-benzo[b]isoxazolo[4,5-d]azepine] | 29800 | > 15000 | –
Cc1noc2c1-c1ccccc1N(c1ccc(C#N)cc1)CC2 [Compound 102] | 430 | 4570 | –
Cc1ccc2c(c1)-c1c(C)noc1CCN2c1ccc(C#N)cc1 [Compound 106] | 230 | > 1000 | 1980
Cc1cc(C#N)ccc1N1CCc2onc(C)c2-c2ccccc21 [Compound 107] | > 4000 | > 15000 | –
Cc1noc2c1-c1cc(C#N)ccc1N(c1ccc(C#N)cc1)CC2 [Compound 108] | 570 | – | –
Cc1noc(C)c1-c1ccc2c(c1)N(c1ccc(C#N)cc1)CCc1onc(C)c1-2 [Compound 111] | 300 | > 1000 | 3330
Cc1noc2c1-c1cc(-c3cncnc3)ccc1N(c1ccc(C#N)cc1)CC2 [Compound 112] | 50000 | > 15000 | –
Cc1noc(C)c1-c1ccc2c(c1)-c1c(C)noc1CCN2c1ccc(C#N)cc1 [Compound 113] | 8900 | 7400 | > 4000
Cc1noc2c1-c1ccc(-c3ccc(N)nc3)cc1N(c1ccc(C#N)cc1)CC2 [Compound 116] | 60 | 380 | 550
Cc1noc2c1-c1ccc(-c3cnn(C)c3)c(C)c1N(c1ccc(C#N)cc1)CC2C (stereo not drawn) [Compound 118] | 160 | 520 | 830
Cc1noc2c1-c1ccc(-c3cnn(C)c3)cc1N(c1ccc(C(N)=O)cc1)CC2 [Compound 119] | 150 | 610 | 460
Cc1noc2c1-c1ccc(-c3cnn(C)c3)cc1N(c1ccc(S(C)(=O)=O)cc1)CC2 [Compound 120] | 240 | > 1000 | 1460
CCC1CN(c2ccc(C#N)cc2)c2cc(-c3cnn(C)c3)ccc2-c2c(C)noc21 (stereo not drawn) [Compound 121] | 80 | 150 | 460
Cc1noc2c1-c1ccc(-c3ccc(N)nc3)cc1N(c1ccc(C#N)cc1)CC2C (stereo not drawn) [Compound 123] | 40 | 80 | 200
Cc1noc2c1-c1ccc(-c3cnn(C)c3)cc1N(c1ccc(C#N)cc1)CC2C (stereo not drawn) [Compound 124] | 40 | 120 | 260
Cc1noc2c1-c1cc(C(N)=O)ccc1N(c1ccc(C#N)cc1)CC2 [Compound 126, 6-(4-cyanophenyl)-1-methyl-5,6-dihydro-4H-benzo[b]isoxazolo[4,5-d]azepine-9-carboxamide] | 1410 | 5280 | 1790
Cc1noc2c1-c1ccccc1N(C)CC2 [Compound 127, 1,6-dimethyl-5,6-dihydro-4H-benzo[b]isoxazolo[4,5-d]azepine] | 9870 | > 15000 | –
Cc1noc2c1-c1ccccc1N(C(C)C)CC2 [Compound 128, 6-isopropyl-1-methyl-5,6-dihydro-4H-benzo[b]isoxazolo[4,5-d]azepine] | 8100 | > 15000 | –
Cc1noc2c1-c1ccccc1N(Cc1ccccc1)CC2 [Compound 130, 6-benzyl-1-methyl-5,6-dihydro-4H-benzo[b]isoxazolo[4,5-d]azepine] | 12900 | 5900 | > 4000
Cc1cccc2c1N(Cc1ccccc1)CCc1onc(C)c1-2 [Compound 131, 6-benzyl-1,7-dimethyl-5,6-dihydro-4H-benzo[b]isoxazolo[4,5-d]azepine] | 20700 | 8500 | > 4000
Cc1noc2c1-c1ccc(-c3cnn(CC(N)=O)c3)cc1N(c1ccc(C#N)cc1)CC2C (stereo not drawn) [Compound 134, 2-(4-(6-(4-cyanophenyl)-1,4-dimethyl-5,6-dihydro-4H-benzo[b]isoxazolo[4,5-d]azepin-8-yl)-1H-pyrazol-1-yl)acetamide] | 30 | 70 | 120
Cc1onc2c1-c1ccccc1N(c1ccc(Cl)cc1)CC2 [Compound 136, 6-(4-chlorophenyl)-1-methyl-5,6-dihydro-4H-benzo[b]isoxazolo[4,3-d]azepine] | 4770 | 7700 | > 4000
Cc1noc2c1-c1ccc(-c3cnn(C)c3)cc1N(c1ccc(C#N)cc1)CC2CC(N)=O (stereo not drawn) [Compound 137, 2-(6-(4-cyanophenyl)-1-methyl-8-(1-methyl-1H-pyrazol-4-yl)-5,6-dihydro-4H-benzo[b]isoxazolo[4,5-d]azepin-4-yl)acetamide] | 420 | > 1000 | 1840
Cc1noc2c1-c1ccc(-c3cnn(C)c3)cc1N(c1ccc(C#N)cc1)CC2CC#N (stereo not drawn) [Compound 140, 4-(4-(cyanomethyl)-1-methyl-8-(1-methyl-1H-pyrazol-4-yl)-4H-benzo[b]isoxazolo[4,5-d]azepin-6(5H)-yl)benzonitrile] | 500 | > 1000 | –
Cc1onc2c1-c1ccccc1NCC2 [Compound 143, 1-methyl-5,6-dihydro-4H-benzo[b]isoxazolo[4,3-d]azepine] | 39600 | – | –

Now from value to compound, other results behind:

IC50 [1] [nM] | IC50 [2] [nM] | SMILES | EC50 [3] [nM]
2680 | 11900 | Cc1noc2c1-c1ccccc1N(c1ccc(Cl)cc1)CC2 [Compound 101] | –
750 | – | Cc1noc2c1-c1ccccc1N(c1ccc(C#N)cc1)CC21CC1 [Compound 104] | –
3380 | – | Cc1noc2c1-c1ccccc1N(c1ccc(Cl)cc1)CC21CC1 [Compound 105] | –
350 | > 1000 | Cc1noc2c1-c1ccc(-c3cncnc3)cc1N(c1ccc(C#N)cc1)CC2 [Compound 109] | 2040
80 | > 1000 | Cc1noc2c1-c1ccc(-c3cnn(C)c3)cc1N(c1ccc(C#N)cc1)CC2 [Compound 110] | 780
3800 | > 15000 | Cc1noc2c1-c1cc(-c3cnn(C)c3)ccc1N(c1ccc(C#N)cc1)CC2 [Compound 114] | > 4000
30 | 530 | Cc1noc2c1-c1ccc(-c3ccc(C(=O)O)cc3)cc1N(c1ccc(C#N)cc1)CC2 [Compound 115] | 2120
40 | 150 | Cc1noc2c1-c1ccc(-c3ccc(=O)n(C)c3)cc1N(c1ccc(C#N)cc1)CC2 [Compound 117] | 610
40 | 120 | CCC1CN(c2ccc(C#N)cc2)c2cc(-c3ccc(=O)n(C)c3)ccc2-c2c(C)noc21 (stereo not drawn) [Compound 122] | 240
40 | 90 | Cc1noc2c1-c1ccc(-c3ccc(=O)n(C)c3)cc1N(c1ccc(C#N)cc1)CC2C (stereo not drawn) [Compound 125] | 170
7900 | > 15000 | CCCN1CCc2onc(C)c2-c2ccccc21 [Compound 129, 1-methyl-6-propyl-5,6-dihydro-4H-benzo[b]isoxazolo[4,5-d]azepine] | –
8140 | 3110 | Cc1noc2c1-c1ccccc1N(C(=O)c1ccccc1)CC2 [Compound 132, (1-methyl-4H-benzo[b]isoxazolo[4,5-d]azepin-6(5H)-yl)(phenyl)methanone] | –
> 4000 | > 1000 | Cc1noc2c1-c1ccc(Cl)cc1N(S(=O)(=O)c1ccccc1)CC2 [Compound 133, 8-chloro-1-methyl-6-(phenylsulfonyl)-5,6-dihydro-4H-benzo[b]isoxazolo[4,5-d]azepine] | > 4000
490 | 650 | Cc1noc2c1-c1ccc(-c3cnn(C)c3)cc1N(c1ccc(C#N)cc1)C(=O)C2 [Compound 135, 4-(1-methyl-8-(1-methyl-1H-pyrazol-4-yl)-5-oxo-4H-benzo[b]isoxazolo[4,5-d]azepin-6(5H)-yl)benzonitrile] | 1320
560 | 4390 | Cc1noc2c1-c1ccccc1N(c1ccc(C#N)cc1)C(C)C2 (stereo not drawn) [Compound 141, 4-(1,5-dimethyl-4H-benzo[b]isoxazolo[4,5-d]azepin-6(5H)-yl)benzonitrile] | –
> 80000 | > 1000 | Cc1noc2c1-c1ccccc1NC(=O)C2N (stereo not drawn) [Compound 142, 4-amino-1-methyl-4H-benzo[b]isoxazolo[4,5-d]azepin-5(6H)-one] | –
24000 | > 15000 | Cc1noc2c1-c1ccccc1NC(C)C2 (stereo not drawn) [Compound 144, 1,5-dimethyl-5,6-dihydro-4H-benzo[b]isoxazolo[4,5-d]azepine] | –
